Measured values published in patent US11524938B2, “Aromatic sulfonamide derivatives” (Bayer Pharma Aktiengesellschaft, priority 2016, dated 2022).
pIC50: −log10 of the molar value.

Target: T1, human P2X4 (Homo sapiens, UniProt Q99571)
T1 sequence (Q99571 1-388): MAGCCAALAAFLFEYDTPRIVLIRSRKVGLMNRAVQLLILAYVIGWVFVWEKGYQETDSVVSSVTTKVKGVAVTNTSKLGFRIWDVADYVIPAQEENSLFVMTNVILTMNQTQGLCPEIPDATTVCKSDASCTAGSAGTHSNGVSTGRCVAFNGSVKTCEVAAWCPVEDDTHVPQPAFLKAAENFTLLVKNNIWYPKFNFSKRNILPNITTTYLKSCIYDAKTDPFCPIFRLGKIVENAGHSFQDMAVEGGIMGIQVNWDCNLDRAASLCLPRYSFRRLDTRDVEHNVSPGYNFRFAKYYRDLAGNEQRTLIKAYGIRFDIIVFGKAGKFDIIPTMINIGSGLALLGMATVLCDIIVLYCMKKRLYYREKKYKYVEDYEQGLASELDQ
Test: Human P2X4 HEK Cell FLIPR Assay
Format: cell-based
Conditions: agonist Bz-ATP at EC80; for Emax: HEK293, HEK293 cells, percentage of maximal inhibition, read-out: Human P2X4 HEK Cells (FLIPR Assay) avg Efficacy [%]; for pIC50: HEK293 cells, individual values listed where some fall outside detection range
Method in brief: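 HEK293 cells stably expressing human P2X4, Fluo8-AM loaded 30 min at 37° C, then compound 30 min at room temperature (0.5% DMSO, pH 7.4 buffer with 1.8 mM CaCl2). Bz-ATP at its daily-determined EC80 added; calcium fluorescence read over 120 sec; IC50 from peak RFU normalized to agonist control, triplicates.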

Q: What does the source list for `NS(=O)(=O)c1cc(NC(=O)Cc2cc(F)cc(F)c2)ccc1-c1cncc(C(F)(F)F)c1` [Example 452, 2-(3,5-Difluorophenyl)-N-{3-sulfamoyl-4-[5-(trifluoromethyl)pyridin-3-yl]phenyl}acetamide]?
A: Emax: 65%; pIC50: 7.12

Q: For `COc1ccc(CC(=O)Nc2ccc(-n3cc(Cl)cn3)c(S(N)(=O)=O)c2)c(Cl)c1` [Example 94, 2-(2-Chloro-4-methoxyphenyl)-N-[4-(4-chloro-1H-pyrazol-1-yl)-3-sulfamoylphenyl]-acetamide], which Emax is on record?
A: Its Emax is 72%.

Q: And the pIC50?
A: Its pIC50 is 6.38.

Q: For `NS(=O)(=O)c1cc(NC(=O)Cc2ccccc2C(F)F)ccc1-n1cc(Cl)cn1` [Example 49, N-[4-(4-Chloro-1H-pyrazol-1-yl)-3-sulfamoylphenyl]-2-[2-(difluoromethyl)-phenyl]acetamide], which Emax is on record?
A: Its Emax is 94%.

Q: And the pIC50?
A: Its pIC50 is 6.87.

Q: With `NS(=O)(=O)c1cc(NC(=O)Cc2cccc(C(F)(F)F)c2Cl)ccc1-n1cc(F)cn1` [Example 162, 2-[2-Chloro-3-(trifluoromethyl)phenyl]-N-[4-(4-fluoro-1H-pyrazol-1-yl)-3-sulfamoyl-phenyl]acetamide] as the compound, how does the Emax read?
A: The Emax was 92%.

Q: And the pIC50?
A: Its pIC50 is 7.72.

Q: For `Cc1nn(-c2ccc(NC(=O)Cc3ccccc3Cl)cc2S(N)(=O)=O)c(C)c1Cl` [Example 543, N-[4-(4-Chloro-3,5-dimethyl-1H-pyrazol-1-yl)-3-sulfamoylphenyl]-2-(2-chlorophenyl)acetamide], which Emax is on record?
A: The Emax was 98%.

Q: What about the pIC50 of the same compound?
A: Its pIC50 is 6.57.

Q: How did the Emax turn out when `NS(=O)(=O)c1cc(NC(=O)Cc2ccc(F)c(F)c2)ccc1-n1cc(F)cn1` [Example 145, 2-(3,4-Difluorophenyl)-N-[4-(4-fluoro-1H-pyrazol-1-yl)-3-sulfamoylphenyl]acetamide] was run?
A: The Emax was 49%.

Q: What about the pIC50 of the same compound?
A: Its pIC50 is < 4.60.

Q: `NS(=O)(=O)c1cc(NC(=O)Cc2ccc(C(F)F)cc2)ccc1-n1cc(C(F)(F)F)nn1` [Example 411, 2-[4-(Difluoromethyl)phenyl]-N-{3-sulfamoyl-4-[4-(trifluoromethyl)-1H-1,2,3-triazol-1-yl]phenyl}acetamide] was tested. Which Emax did it give?
A: Its Emax is 90%.

Q: And the pIC50?
A: The pIC50 was 7.08.

Q: For `COc1ccc(CC(=O)Nc2ccc(-n3cc(C#N)cn3)c(S(N)(=O)=O)c2)c(Cl)c1` [Example 210, 2-(2-Chloro-4-methoxyphenyl)-N-[4-(4-cyano-1H-pyrazol-1-yl)-3-sulfamoylphenyl]-acetamide], which Emax is on record?
A: The Emax was 76%.

Q: What about the pIC50 of the same compound?
A: Its pIC50 is 6.94.

Q: Which Emax does the source give for `NS(=O)(=O)c1cc(NC(=O)Cc2ccccc2Cl)ccc1-c1cncs1` [Example 418, 2-(2-Chlorophenyl)-N-[3-sulfamoyl-4-(1,3-thiazol-5-yl)phenyl]acetamide] here?
A: The Emax was 91%.

Q: What about the pIC50 of the same compound?
A: The pIC50 was 7.82.

Q: With `NS(=O)(=O)c1cc(NC(=O)C(F)(F)c2ccccc2Cl)ccc1-n1cc(Cl)cn1` [Example 109, 2-(2-Chlorophenyl)-N-[4-(4-chloro-1H-pyrazol-1-yl)-3-sulfamoylphenyl]-2,2-difluoroacetamide] as the compound, how does the Emax read?
A: Its Emax is 86%.

Q: And the pIC50?
A: The pIC50 was 6.18.

Q: Which Emax does the source give for `NS(=O)(=O)c1cc(NC(=O)Cc2ccccc2F)ccc1-n1nc2cc(F)cc(F)c2n1` [Example 479, N-[4-(4,6-Difluoro-2H-benzotriazol-2-yl)-3-sulfamoylphenyl]-2-(2-fluorophenyl)acetamide] here?
A: The Emax was 79%.

Q: What about the pIC50 of the same compound?
A: Its pIC50 is 6.84.

Q: How did the Emax turn out when `NS(=O)(=O)c1cc(NC(=O)Cc2ccccc2F)ccc1-c1cncc(C(F)(F)F)c1` [Example 221, 2-(2-Fluorophenyl)-N-{3-sulfamoyl-4-[5-(trifluoromethyl)pyridin-3-yl]phenyl}-acetamide] was run?
A: Its Emax is 63%.

Q: What about the pIC50 of the same compound?
A: Its pIC50 is 7.40.

Q: `CN(C)CCNC(=O)c1cccc(-c2ccc(NC(=O)Cc3ccccc3Cl)cc2S(N)(=O)=O)c1` [Example 364, 4′-{[(2-Chlorophenyl)acetyl]amino}-N-[2-(dimethylamino)ethyl]-2′-sulfamoylbiphenyl-3-carboxamide] was tested. Which Emax did it give?
A: Its Emax is 77%.

Q: What about the pIC50 of the same compound?
A: The pIC50 was 6.15.

Q: `Cn1c(C#N)ccc1-c1ccc(NC(=O)Cc2ccccc2Cl)cc1S(N)(=O)=O` [Example 530, 2-(2-Chlorophenyl)-N-[4-(5-cyano-1-methyl-1H-pyrrol-2-yl)-3-sulfamoylphenyl]acetamide] was tested. Which Emax did it give?
A: Its Emax is 112%.

Q: What about the pIC50 of the same compound?
A: Its pIC50 is 7.48.

Q: How did the Emax turn out when `Cc1nc(C)c(-c2ccc(NC(=O)Cc3ccccc3Cl)cc2S(N)(=O)=O)s1` [Example 503, 2-(2-Chlorophenyl)-N-[4-(2,4-dimethyl-1,3-thiazol-5-yl)-3-sulfamoylphenyl]acetamide] was run?
A: Its Emax is 102%.

Q: What about the pIC50 of the same compound?
A: The pIC50 was 7.33.

Q: What does the source list for `NS(=O)(=O)c1cc(NC(=O)Cc2ccccc2Br)ccc1-c1ccc(Cl)nc1` [Example 467, 2-(2-Bromophenyl)-N-[4-(6-chloropyridin-3-yl)-3-sulfamoylphenyl]acetamide]?
A: Emax: 93%; pIC50: 8.05

Q: For `NS(=O)(=O)c1cc(NC(=O)Cc2ccccc2Cl)ccc1-c1cnsc1` [Example 426, 2-(2-Chlorophenyl)-N-[3-sulfamoyl-4-(1,2-thiazol-4-yl)phenyl]acetamide], which Emax is on record?
A: Its Emax is 86%.

Q: And the pIC50?
A: The pIC50 was 7.62.

Q: What does the source list for `NS(=O)(=O)c1cc(NC(=O)Cc2ccccc2F)ccc1-n1ccc(C2CC2)n1` [Example 264, N-[4-(3-Cyclopropyl-1H-pyrazol-1-yl)-3-sulfamoylphenyl]-2-(2-fluorophenyl)-acetamide]?
A: Emax: 76%; pIC50: 5.39

Q: Which results are given for `NS(=O)(=O)c1cc(NC(=O)Cc2ccc(Cl)cc2Cl)ccc1-c1cncc(F)c1` [Example 475, 2-(2,4-Dichlorophenyl)-N-[4-(5-fluoropyridin-3-yl)-3-sulfamoylphenyl]acetamide]?
A: Emax: 88%; pIC50: 7.19

Q: Which results are given for `COc1ccc(Cl)cc1CC(=O)Nc1ccc(-n2cc(C#N)cn2)c(S(N)(=O)=O)c1` [Example 212, 2-(5-Chloro-2-methoxyphenyl)-N-[4-(4-cyano-1H-pyrazol-1-yl)-3-sulfamoylphenyl]-acetamide]?
A: Emax: 86%; pIC50: 6.83

Q: How did the Emax turn out when `NS(=O)(=O)c1cc(NC(=O)Cc2ccccc2Cl)ccc1-n1cc(C2CC2)cn1` [Example 478, 2-(2-Chlorophenyl)-N-[4-(4-cyclopropyl-1H-pyrazol-1-yl)-3-sulfamoylphenyl]acetamide] was run?
A: Its Emax is 82%.

Q: What about the pIC50 of the same compound?
A: Its pIC50 is 7.33.

Q: `Cn1cc(-c2ncc(NC(=O)Cc3ccccc3Cl)cc2S(N)(=O)=O)cn1` [Example 302, 2-(2-Chlorophenyl)-N-[6-(1-methyl-1H-pyrazol-4-yl)-5-sulfamoylpyridin-3-yl]acetamide] was tested. Which Emax did it give?
A: Its Emax is 97%.

Q: And the pIC50?
A: Its pIC50 is 7.25.

Q: What does the source list for `Cn1cc(-c2ccc(NC(=O)Cc3c(F)cccc3Cl)cc2S(N)(=O)=O)cn1` [Example 339, 2-(2-Chloro-6-fluorophenyl)-N-[4-(1-methyl-1H-pyrazol-4-yl)-3-sulfamoylphenyl]-acetamide]?
A: Emax: 92%; pIC50: 7.48

Q: For `NS(=O)(=O)c1cc(NC(=O)Cc2ccccc2Cl)ccc1-n1cc2cccnc2n1` [Example 253, 2-(2-Chlorophenyl)-N-[4-(2H-pyrazolo[3,4-b]pyridin-2-yl)-3-sulfamoylphenyl]-acetamide], which Emax is on record?
A: The Emax was 85%.

Q: What about the pIC50 of the same compound?
A: The pIC50 was 6.59.

Q: With `Cc1nc(Cl)ncc1-c1ccc(NC(=O)Cc2ccccc2Cl)cc1S(N)(=O)=O` [Example 317, N-[4-(2-Chloro-4-methylpyrimidin-5-yl)-3-sulfamoylphenyl]-2-(2-chlorophenyl)acetamide] as the compound, how does the Emax read?
A: Its Emax is 68%.

Q: And the pIC50?
A: Its pIC50 is 5.92.

Q: Which Emax does the source give for `NS(=O)(=O)c1cc(NC(=O)Cc2ccccc2Cl)ccc1-c1ccc(Cl)cc1` [Example 352, 2-(2-Chlorophenyl)-N-(4′-chloro-2-sulfamoylbiphenyl-4-yl)acetamide] here?
A: The Emax was 91%.

Q: What about the pIC50 of the same compound?
A: The pIC50 was 7.27.

Q: For `Cc1nnc(-c2ccc(NC(=O)Cc3ccccc3Cl)cc2S(N)(=O)=O)o1` [Example 524, 2-(2-Chlorophenyl)-N-[4-(5-methyl-1,3,4-oxadiazol-2-yl)-3-sulfamoylphenyl]acetamide], which Emax is on record?
A: Its Emax is 87%.

Q: What about the pIC50 of the same compound?
A: The pIC50 was 6.49.

Q: What does the source list for `CSc1cnn(-c2ccc(NC(=O)Cc3ccccc3Cl)cc2S(N)(=O)=O)c1` [Example 30, 2-(2-Chlorophenyl)-N-{4-[4-(methylsulfanyl)-1H-pyrazol-1-yl]-3-sulfamoylphenyl}-acetamide]?
A: Emax: 87%; pIC50: 6.65

Q: `NS(=O)(=O)c1cc(NC(=O)Cc2cc(F)ccc2Cl)ccc1-n1cc(Cl)cn1` [Example 98, 2-(2-Chloro-5-fluorophenyl)-N-[4-(4-chloro-1H-pyrazol-1-yl)-3-sulfamoylphenyl]-acetamide] was tested. Which Emax did it give?
A: The Emax was 77%.

Q: And the pIC50?
A: Its pIC50 is 6.91.

Q: Which Emax does the source give for `NS(=O)(=O)c1cc(NC(=O)Cc2ccccc2Cl)ccc1-c1cncc(OC(F)F)c1` [Example 289, 2-(2-Chlorophenyl)-N-{4-[5-(difluoromethoxy)pyridin-3-yl]-3-sulfamoylphenyl}acetamide] here?
A: The Emax was 89%.

Q: And the pIC50?
A: The pIC50 was 8.22.

Q: Which Emax does the source give for `NS(=O)(=O)c1cc(NC(=O)Cc2cccc(F)c2F)ccc1-n1cc(C(F)(F)F)cn1` [Example 122, 2-(2,3-Difluorophenyl)-N-{3-sulfamoyl-4-[4-(trifluoromethyl)-1H-pyrazol-1-yl]phenyl}-acetamide] here?
A: The Emax was 88%.

Q: And the pIC50?
A: The pIC50 was 6.58.

Q: Which Emax does the source give for `Cc1cc(-c2ccc(NC(=O)Cc3ccccc3Cl)cc2S(N)(=O)=O)sn1` [Example 424, 2-(2-Chlorophenyl)-N-[4-(3-methyl-1,2-thiazol-5-yl)-3-sulfamoylphenyl]acetamide] here?
A: The Emax was 88%.

Q: What about the pIC50 of the same compound?
A: The pIC50 was 7.54.

Q: Which Emax does the source give for `NS(=O)(=O)c1cc(NC(=O)Cc2ccc(C(F)F)cc2)ccc1-c1cncc(F)c1` [Example 477, 2-[4-(Difluoromethyl)phenyl]-N-[4-(5-fluoropyridin-3-yl)-3-sulfamoylphenyl]acetamide] here?
A: Its Emax is 91%.

Q: What about the pIC50 of the same compound?
A: Its pIC50 is 6.59.
